In patent US4820695A, “C-20-dihydro-deoxy-(cyclic amino)-derivatives of macrolide antibiotics” (priority 1987, dated 1989):
≈ marks a conversion by molar mass, not a printed value. Read-outs that look alike come from different tables or passages of the source.

Legend:
Staphyloccus aureus X1.1 = test: MIC, standard agar-dilution assay (Table IX); format: cell-based, Staphylococcus aureus
[1] = test system: Staphylococcus aureus V41; test: MIC, standard agar-dilution assay (Table IX); format: cell-based; details: Staphylococcus aureus V41, Penicillin-resistant strain
[2] = test system: Staphylococcus aureus X400; test: MIC, standard agar-dilution assay (Table IX); format: cell-based; details: Staphylococcus aureus X400, Methicillin-resistant strain
[3] = test system: Staphylococcus aureus S13E; test: MIC, standard agar-dilution assay (Table IX); format: cell-based
[4] = test system: Staphylococcus epidermidis EPI1; test: MIC, standard agar-dilution assay (Table IX); format: cell-based; details: Staphylococcus epidermidis EPI1, agar-dilution
[5] = test system: Staphylococcus epidermidis 222; test: MIC, standard agar-dilution assay (Table IX); format: cell-based
[6] = test system: Streptococcus pyogenes C203; test: MIC, standard agar-dilution assay (Table IX); format: cell-based
[7] = test system: Streptococcus pneumoniae Park I; test: MIC, standard agar-dilution assay (Table IX); format: cell-based; details: Streptococcus pneumoniae Park I, agar-dilution
[8] = test system: Streptococcus Group D X66; test: MIC, standard agar-dilution assay (Table IX); format: cell-based
[9] = test system: Streptococcus Group D 2041; test: MIC, standard agar-dilution assay (Table IX); format: cell-based
[10] = test system: Haemophilus influenzae C.L.; test: MIC, standard agar-dilution assay (Table IX); format: cell-based; details: Ampicillin-sensitive strain
[11] = test system: Haemophilus influenzae 76; test: MIC, standard agar-dilution assay (Table IX); format: cell-based; details: Haemophilus influenzae 76, Ampicillin-resistant strain
Escherichia coli N10 = test: MIC, standard agar-dilution assay (Table IX); format: cell-based
Escherichia coli EC14 = test: MIC, standard agar-dilution assay (Table IX); format: cell-based
Escherichia coli TEM = test: MIC, standard agar-dilution assay (Table IX); format: cell-based
Klebsiella X26 = test: MIC, standard agar-dilution assay (Table IX); format: cell-based
[12] = test system: Mycoplasma gallisepticum 29C; test: MIC, broth-dilution microtiter test (Table X); format: cell-based
Source text: (§1) The MIC's in Table X were obtained using conventional broth-dilution microtiter tests.

[13] = test system: Mycoplasma hyopneumoniae S5972; test: MIC, broth-dilution microtiter test (Table X); format: cell-based
Source text: as §1

Mycoplasma hyorhinis 29E = test: MIC, broth-dilution microtiter test (Table X); format: cell-based
Source text: as §1

Mycoplasma synoviae 40A = test: MIC, broth-dilution microtiter test (Table X); format: cell-based
Source text: as §1

[14] = test system: Pasteurella hemolytica 22C; test: MIC, broth-dilution microtiter test (Table X); format: cell-based
Source text: as §1

[15] = test system: Pasteurella multocida 17E; test: MIC, broth-dilution microtiter test (Table X); format: cell-based; details: Bovine isolate
Source text: as §1

[16] = test system: Pasteurella multocida 60A; test: MIC, broth-dilution microtiter test (Table X); format: cell-based; details: Avian isolate
Source text: as §1

Staphylococcus aureus = test: MIC, broth-dilution microtiter test (Table X); format: cell-based
Source text: as §1

Streptococcus sp. 19F = test: MIC, broth-dilution microtiter test (Table X); format: cell-based
Source text: as §1

[17] = test system: Streptococcus pyogenes C203; test: ED50 in mice experimentally infected with S. pyogenes C203 (Table XI); format: in vivo; details: Streptococcus pyogenes, doses given 1 and 4 hours postinfection, read-out: ED50
Method in brief: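 Mice infected with S. pyogenes C203 received two doses of compound, 1 and 4 h post-infection. ED50 is the dose in mg/kg (per dose, ×2) protecting 50% of animals.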

Pasteurella multocida [18] = test: Pasteurella infection in one-day-old chicks, subcutaneous administration (Table XII); format: in vivo; details: Administered subcutaneously, 30 mg/kg × 2, 1 and 4 hours post-challenge
Protocol: (§2) Many of the C-20 modified derivatives of this invention have also shown in vivo antibacterial activity against infections induced by gram-negative bacteria. Tables XII and XIII summarize the results of tests in which illustrative compounds were evaluated against a Pasteurella infection in one-day-old chicks. The compounds were administered parenterally or orally after challenge of the chicks with Pasteurella multocida (0.1 ml of a 10^-4 dilution of a twenty-hour tryptose broth culture of an avian P. multocida given subcutaneously). In these tests, unless indicated otherwise, all non-medicated infected chicks died within 24 hours of Pasteurella challenge. In the tests summarized in Table XII, the compounds were administered by subcutaneous injection at a dosage of 30 mg/kg, 1 and 4 hours post-challenge of the chicks with P. multocida. In the tests summarized in Table XIII the compounds were administered in medicated drinking water (at a level of 2 g/gal) available from 4 to 20 hours prior to challenge of the chicks with P. multocida and during the 3 -day test period.
^a Administered subcutaneously; 30 mg/kg × 2

Pasteurella multocida [19] = test: Pasteurella infection in one-day-old chicks, medicated drinking water (Table XIII); format: in vivo; details: Administered in the available drinking water at 2 g/gal
Protocol: as §2
^a Administered in the available drinking water at a concentration of […]

[20] = Titratable groups in 66% aqueous DMF (Tables XIV-XVI); format: physicochemical
Source text: ^c Run in 66% aqueous DMF
^d Run in 66% aqueous DMF

[21] = Staphylococcus aureus, read-out: MIC
[22] = Mycoplasmoides gallisepticum, read-out: MIC
[23] = Mesomycoplasma hyopneumoniae, read-out: MIC
[24] = Mycoplasmopsis synoviae, read-out: MIC

CCC1OC(=O)CC(O)C(C)C(OC2OC(C)C(O)C(N(C)C)C2O)C(CCN2CCC3(CC2)OCCO3)CC(C)C(=O)C=CC(C)=CC1COC1OC(C)C(O)C(OC)C1OC (stereo not drawn) [Compound D28, 20-DH-DO-20-[4-(ethylenedioxy)piperidin-1-yl]desmycosin]
MIC (Staphyloccus aureus X1.1; [21]): 2 µg/mL (≈ 2.22 µM)
MIC ([1]; read-out: MIC): 2 µg/mL (≈ 2.22 µM)
MIC ([2]; read-out: MIC): 4 µg/mL (≈ 4.45 µM)
MIC ([3]; Staphylococcus aureus, S13E): 2 µg/mL (≈ 2.22 µM)
MIC ([4]; read-out: MIC): 2 µg/mL (≈ 2.22 µM)
MIC ([5]; read-out: MIC): 1 µg/mL (≈ 1.11 µM)
MIC ([6]; read-out: MIC): 0.5 µg/mL (≈ 0.556 µM)
MIC ([7]; read-out: MIC): 2 µg/mL (≈ 2.22 µM)
MIC ([8]; read-out: MIC): 8 µg/mL (≈ 8.9 µM)
MIC ([9]; GROUPD2041, read-out: MIC): 8 µg/mL (≈ 8.9 µM)
MIC ([10]; read-out: MIC): 32 µg/mL (≈ 35.6 µM)
MIC ([11]; read-out: MIC): 32 µg/mL (≈ 35.6 µM)
MIC (Escherichia coli N10; read-out: MIC): > 128 µg/mL
MIC (Escherichia coli EC14; read-out: MIC): > 128 µg/mL
MIC (Escherichia coli TEM; read-out: MIC): 64 µg/mL (≈ 71.2 µM)
MIC (Klebsiella X26; read-out: MIC): 64 µg/mL (≈ 71.2 µM)
MIC [12, 22]: 0.097 µg/mL (≈ 0.108 µM)
MIC [13, 23]: 1.56 µg/mL (≈ 1.74 µM)
MIC (Mycoplasma hyorhinis 29E; read-out: MIC): 25 µg/mL (≈ 27.8 µM)
MIC (Mycoplasma synoviae 40A; [24]): 0.195 µg/mL (≈ 0.217 µM)
MIC ([14]; read-out: MIC): 25 µg/mL (≈ 27.8 µM)
MIC ([15]; read-out: MIC): 6.25 µg/mL (≈ 6.95 µM)
MIC ([16]; read-out: MIC): 25 µg/mL (≈ 27.8 µM)
MIC (Staphylococcus aureus; read-out: MIC): 3.12 µg/mL (≈ 3.47 µM)
MIC (Streptococcus sp. 19F; read-out: MIC): 3.12 µg/mL (≈ 3.47 µM)
ED50 ([17]; C203, Oral): 77 mg/kg
ED50 ([17]; C203, sc, Subcutaneous): 0.75 mg/kg
Number of Deaths/Number Treated (Pasteurella multocida [18]): 0/10
Number of Deaths/Number Treated (Pasteurella multocida [19]): 7/10

CCC1OC(=O)CC(O)C(C)C(OC2OC(C)C(O)C(N(C)C)C2O)C(CCN2C3CCCCC3C3CCCCC32)CC(C)C(=O)C=CC(C)=CC1COC1OC(C)C(O)C(OC)C1OC (stereo not drawn) [Compound D25, 20-DH-DO-20-(Dodecahydrocarbazol-9-yl) desmycosin]
MIC (Staphyloccus aureus X1.1; [21]): 0.5 µg/mL (≈ 0.535 µM)
MIC ([1]; read-out: MIC): 0.5 µg/mL (≈ 0.535 µM)
MIC ([2]; read-out: MIC): 1 µg/mL (≈ 1.07 µM)
MIC ([3]; Staphylococcus aureus, S13E): 0.5 µg/mL (≈ 0.535 µM)
MIC ([4]; read-out: MIC): 0.5 µg/mL (≈ 0.535 µM)
MIC ([5]; read-out: MIC): 0.25 µg/mL (≈ 0.267 µM)
MIC ([6]; read-out: MIC): 0.25 µg/mL (≈ 0.267 µM)
MIC ([7]; read-out: MIC): 0.5 µg/mL (≈ 0.535 µM)
MIC ([8]; read-out: MIC): 4 µg/mL (≈ 4.28 µM)
MIC ([9]; GROUPD2041, read-out: MIC): 4 µg/mL (≈ 4.28 µM)
MIC ([10]; read-out: MIC): 16 µg/mL (≈ 17.1 µM)
MIC ([11]; read-out: MIC): 8 µg/mL (≈ 8.55 µM)
MIC (Escherichia coli N10; read-out: MIC): 128 µg/mL (≈ 137 µM)
MIC (Escherichia coli EC14; read-out: MIC): 128 µg/mL (≈ 137 µM)
MIC (Escherichia coli TEM; read-out: MIC): 32 µg/mL (≈ 34.2 µM)
MIC (Klebsiella X26; read-out: MIC): 128 µg/mL (≈ 137 µM)
MIC [12, 22]: 0.39 µg/mL (≈ 0.417 µM)
MIC [13, 23]: 0.39 µg/mL (≈ 0.417 µM)
MIC (Mycoplasma hyorhinis 29E; read-out: MIC): 12.5 µg/mL (≈ 13.4 µM)
MIC (Mycoplasma synoviae 40A; [24]): 0.097 µg/mL (≈ 0.104 µM)
MIC ([14]; read-out: MIC): 3.12 µg/mL (≈ 3.34 µM)
MIC ([15]; read-out: MIC): 12.5 µg/mL (≈ 13.4 µM)
MIC ([16]; read-out: MIC): 12.5 µg/mL (≈ 13.4 µM)
MIC (Staphylococcus aureus; read-out: MIC): 3.12 µg/mL (≈ 3.34 µM)
MIC (Streptococcus sp. 19F; read-out: MIC): 3.12 µg/mL (≈ 3.34 µM)
Number of Deaths/Number Treated (Pasteurella multocida [18]): 0/10
Number of Deaths/Number Treated (Pasteurella multocida [19]): 7/10
pKa ([20]; Titratable groups): 9.95
pKa ([20]; Titratable groups (first value)): 7.95

CCC1OC(=O)CC(O)C(C)C(OC2OC(C)C(O)C(N(C)C)C2O)C(CCN2CCC(C)CC(C)(C)C2)CC(C)C(=O)C=CC(C)=CC1COC1OC(C)C(O)C(OC)C1OC (single isomer, unassigned) [Compound D23, 20-DH-DO-20-(3,3,5-Trimethylhexahydroazepin-1-yl)desmycosin]
MIC (Staphyloccus aureus X1.1): 0.5 µg/mL (≈ 0.557 µM)
MIC [1]: 0.5 µg/mL (≈ 0.557 µM)
MIC [2]: 1 µg/mL (≈ 1.11 µM)
MIC ([3]; Staphylococcus aureus S13E, agar-dilution): 0.5 µg/mL (≈ 0.557 µM)
MIC [4]: 0.5 µg/mL (≈ 0.557 µM)
MIC [5]: 0.5 µg/mL (≈ 0.557 µM)
MIC [6]: 0.5 µg/mL (≈ 0.557 µM)
MIC [7]: 0.5 µg/mL (≈ 0.557 µM)
MIC [8]: 4 µg/mL (≈ 4.46 µM)
MIC [9]: 8 µg/mL (≈ 8.92 µM)
MIC [10]: 16 µg/mL (≈ 17.8 µM)
MIC [11]: 8 µg/mL (≈ 8.92 µM)
MIC (Escherichia coli N10): 64 µg/mL (≈ 71.3 µM)
MIC (Escherichia coli EC14): 64 µg/mL (≈ 71.3 µM)
MIC (Escherichia coli TEM): 32 µg/mL (≈ 35.7 µM)
MIC (Klebsiella X26): 128 µg/mL (≈ 143 µM)
MIC [12]: 0.097 µg/mL (≈ 0.108 µM)
MIC [13]: 0.78 µg/mL (≈ 0.869 µM)
MIC (Mycoplasma hyorhinis 29E): 6.25 µg/mL (≈ 6.97 µM)
MIC (Mycoplasma synoviae 40A): 0.097 µg/mL (≈ 0.108 µM)
MIC [14]: 3.12 µg/mL (≈ 3.48 µM)
MIC [15]: 6.25 µg/mL (≈ 6.97 µM)
MIC [16]: 12.5 µg/mL (≈ 13.9 µM)
MIC (Staphylococcus aureus): 3.12 µg/mL (≈ 3.48 µM)
MIC (Streptococcus sp. 19F): 1.56 µg/mL (≈ 1.74 µM)
Number of Deaths/Number Treated (Pasteurella multocida [18]): 8/10
Number of Deaths/Number Treated (Pasteurella multocida [19]): 4/10
Titratable groups [20]: 9.0
Titratable groups (first value) [20]: 7.7
